Experimental data published in PubChem BioAssay (NCI).
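Assay format: 96-well plates, 48-hour exposure. GI50 marks 50% less growth. TGI is the concentration that stops growth completely.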

Legend:
Experiment in all cases: NCI-60 cell line screen, 48 h
786-0 renal = tested on: 786-0 renal
NCI-H460 lung = tested on: NCI-H460 lung
SK-MEL-5 melanoma = tested on: SK-MEL-5 melanoma
COLO 205 colon = tested on: COLO 205 colon
SK-OV-3 ovarian = tested on: SK-OV-3 ovarian
SNB-75 CNS = tested on: SNB-75 CNS
MCF7 breast = tested on: MCF7 breast
MALME-3M melanoma = tested on: MALME-3M melanoma

| SMILES | GI50 (786-0 renal) [µM] | TGI (786-0 renal) [µM] | GI50 (NCI-H460 lung) [µM] | TGI (NCI-H460 lung) [µM] | GI50 (SK-MEL-5 melanoma) [µM] | TGI (SK-MEL-5 melanoma) [µM] | GI50 (COLO 205 colon) [µM] | TGI (COLO 205 colon) [µM] | GI50 (SK-OV-3 ovarian) [µM] | TGI (SK-OV-3 ovarian) [µM] | GI50 (SNB-75 CNS) [µM] | TGI (SNB-75 CNS) [µM] | GI50 (MCF7 breast) [µM] | TGI (MCF7 breast) [µM] | GI50 (MALME-3M melanoma) [µM] | TGI (MALME-3M melanoma) [µM] |
| --- | --- | --- | --- | --- | --- | --- | --- | --- | --- | --- | --- | --- | --- | --- | --- | --- |
| CCCCC(CC)COC(=O)C[N+](C)(C)CCOC(c1ccccc1)c1ccccc1 (stereo not given) | 2.3 | 5.69 | 4.77 | 18.8 | 1.73 | 3.1 | 1.93 | 4.12 | 6.38 | 21.8 | 2.13 | 5.27 | 1.99 | 4.34 | 1.49 | 3.09 |
| COc1ccc(-c2[nH]c3ccc(OC)cc3c2/C=C(\C#N)S(=O)(=O)c2ccccc2)cc1 | 2.03 | > 100 | 0.659 | > 26 | 0.319 | 2.39 | 0.396 | 1.83 | 0.963 | > 65.9 | 0.561 | 45.5 | 0.774 | > 100 | 3.13 | > 82.2 |
| CCc1nc2cc(F)c(/C=C/C(=O)NO)cc2c(=O)n1CCc1ccccc1 | 0.309 | 2.03 | 0.31 | 3.17 | 0.256 | 0.701 | 0.221 | 0.537 | 0.263 | 0.787 | 0.356 | 13.8 | 0.302 | > 100 | 0.216 | 0.907 |
| CCCC(CCC)NCC(O)c1cc(-c2ccc(C(F)(F)F)cc2)nc(C(F)(F)F)c1 (stereo not given) | 1.37 | 2.9 | 1.77 | 3.4 | 1.73 | 3.1 | 2 | 3.63 | 1.75 | 3.22 | 1.72 | 3.3 | 1.43 | 2.87 | 2.05 | 4.02 |
| Cc1cc2nc(C=C(C(F)(F)F)C(F)(F)F)oc2cc1C | – | 3.38 | – | > 10 | – | > 10 | – | 0.392 | – | > 10 | – | > 10 | – | > 10 | – | 3.76 |
| COc1c(C(=O)/C=C/c2ccccc2)c(O)cc2occc12 | 16.2 | 31.8 | 3.02 | 8.92 | 3.87 | 16.3 | 15.7 | 29.9 | 14.1 | 36.4 | 2.42 | 15.1 | 3.52 | 17.2 | – | – |
| CC/C=C\C[C@H](O)C/C=C1/C(=O)C=C[C@@H]1C/C=C\CCCC(=O)OC | 1.86 | 3.62 | 3.26 | 11.2 | 1.54 | 2.91 | 1.84 | 4.02 | 5.37 | 15.4 | 11.7 | 26 | 0.376 | 3.62 | 2.14 | 6.24 |
| CN1CCN(CCCNc2nc3ccc(Oc4ccc(NC(=O)Nc5cc(C(F)(F)F)ccc5F)cc4)cc3[nH]2)CC1 | 5.26 | 11.9 | 4.37 | 8.4 | 3.66 | 7.01 | 4.5 | 7.97 | 4.36 | 10.3 | 5.14 | 13.2 | 4.05 | 7.61 | 4.69 | 9.67 |
| NS(=O)(=O)c1ccc(-c2ccc3c(NC(=O)C4CC4)n[nH]c3c2)cc1 | > 25 | > 25 | > 25 | > 25 | > 25 | > 25 | > 25 | > 25 | > 25 | > 25 | > 25 | > 25 | > 25 | > 25 | > 25 | > 25 |
| Cc1ccc(N=C/C=C(\Nc2ccc(C)cc2)c2ccc(Cl)cc2)cc1 | 11.1 | 28.7 | 6.38 | 60.6 | 6 | 20.7 | 7.11 | > 100 | 21 | > 100 | – | – | 5.77 | 69.6 | 9.27 | 48.4 |
| COc1cc2c3c(n(CCCN)c(=O)c2cc1OC)-c1ccc(C#N)cc1C3=O | 4.43 | 20.3 | 7.16 | 26.9 | 16.4 | 32.6 | 13.2 | 28.7 | 12.7 | 28 | 0.562 | 16.1 | 8.36 | 40.1 | 18.9 | 73.3 |
| CN1CCc2nc(N)nc(-c3nc(N)nc4c3CN(C)CC4)c2C1 | – | > 100 | – | > 100 | – | > 100 | – | > 100 | – | > 100 | – | – | – | > 100 | – | > 100 |
| COC(=O)Nc1nc2ccc(C3(c4ccc(F)cc4)OCCO3)cc2[nH]1 | 0.687 | > 100 | 0.344 | > 36.8 | 0.267 | 17.4 | 0.297 | 2.88 | 0.587 | > 100 | 0.262 | 98.4 | 0.18 | > 100 | – | – |
| COc1ccc(-c2cc(-c3cc(C)cc(Br)c3O)no2)cc1 | – | 31.6 | – | 44.5 | – | 24.3 | – | – | – | – | – | 8.73 | – | 42.4 | – | – |
| C=C1C(=O)O[C@H]2[C@H]1CC/C(COC(=O)NCCCCNC(=O)OC/C1=C/CC[C@@]3(C)O[C@H]3[C@H]3OC(=O)C(=C)[C@@H]3CC1)=C\CC[C@@]1(C)O[C@@H]21 | 1.99 | 4.26 | 4.61 | 18 | 3.33 | 11.8 | 0.466 | 1.8 | 12.7 | 25.3 | 2.19 | 16.5 | – | – | 0.452 | 2.19 |
| COc1c2c(cc3c1OCO3)[C@]13C=C[C@H](OC)C[C@H]1N(C2)CC3O (stereo not given in full) | – | > 100 | – | > 100 | – | > 100 | – | > 100 | – | > 100 | – | – | – | > 100 | – | > 100 |
| O=C1c2cccnc2-c2nc(-c3ccc(Cl)cc3)cc3c2c1nc1ccccc13 | 12.8 | 29.7 | 37.2 | > 100 | 17.5 | 80.8 | > 100 | > 100 | – | – | 57.9 | > 100 | 18.8 | 75.4 | 20.2 | 91.5 |
